Consider 3 molecules from US5670510A, “Pyridyl substituted spirodienes for the treatment of inflammation” (G. D. Searle & Co., priority 1996, dated 1997).

The structures appear in SMILES notation.

The subject of one series is cyclooxygenase II. To be noted: literature: Meade et al; Futaki et al; cited from earlier work.
For series [1] the following is noted: literature: Futaki et al; cited from earlier work.
In series [2] the test system is carrageenan-induced hyperalgesic foot withdrawal. As to the kind of experiment: Rat Carrageenan-induced Analgesia Test. The series is classed as in vivo, Male Sprague-Dawley rats. To be noted: oral, inhibition of hyperalgesic foot withdrawal 3 h after carrageenan. As to the method: Rat Carrageenan-induced Analgesia Test
The rat carrageenan analgesia test was performed with materials, reagents and procedures essentially as described by Hargreaves, et al. (Pain, 32, 77 (1988)). Male Sprague-Dawley rats were treated as previously described for the Carrageenan Foot Pad Edema test. Three hours after the injection of the carrageenan, the rats were placed in a special plexiglass container with a transparent floor having a high intensity lamp as a radiant heat source, positionable under the floor. After an initial twenty minute period, thermal stimulation was begun on either the injected foot or on the contralateral uninjected foot. A photoelectric cell turned off the lamp and timer when light was interrupted by paw withdrawal. The time until the rat withdraws its foot was then measured. The withdrawal latency in seconds was determined for the control and drug-treated groups, and percent inhibition of the hyperalgesic foot withdrawal determined.

In series [3] the test system is carrageenan-induced foot edema. In words: Rat Carrageenan Foot Pad Edema Test. The series is classed as in vivo, Male Sprague-Dawley rats. To be noted: oral, 3 h after carrageenan injection. The protocol: Rat Carrageenan Foot Pad Edema Test
The carrageenan foot edema test was performed with materials, reagents and procedures essentially as described by Winter, et al. (Proc. Soc. Exp. Biol. Med., 11, 544 (1962)). Male Sprague-Dawley rats were selected in each group so that the average body weight was as close as possible. Rats were fasted with free access to water for over sixteen hours prior to the test. The rats were dosed orally (1 mL) with compounds suspended in vehicle containing 0.5% methylcellulose and 0.025% surfactant, or with vehicle alone. One hour later a subplantar injection of 0.1 mL of 1% solution of carrageenan/sterile 0.9% saline was administered and the volume of the injected foot was measured with a displacement plethysmometer connected to a pressure transducer with a digital indicator. Three hours after the injection of the carrageenan, the volume of the foot was again measured. The average foot swelling in a group of drug-treated animals was compared with that of a group of placebo-treated animals and the percentage inhibition of edema was determined (Ottertess and Bliven, Laboratory Models for Testing NSAIDs, in Non-steroidal Anti-inflammatory Drugs, (J. Lombardino, ed. 1985)).

For a further series, the system named is COX I. The following applies: read-out: COX I ID50; arachidonic acid 10 μM; pH 8.0; pre-incubated 10-20 minutes. As to the method:
Recombinant baculoviruses were isolated by transfecting 4 μg of baculovirus transfer vector DNA into SF9 insect cells ([…]) along with 200 ng of linearized baculovirus plasmid DNA by the calcium phosphate method. […] Exp. Station Bull. 1555 (1987). Recombinant viruses were purified by three rounds of plaque purification and high titer (10E7-10E8 pfu/ml) stocks of virus were prepared. For large scale production, SF9 insect cells were infected in 10 liter fermentors (0.5×10^6 /ml) with the recombinant baculovirus stock such that the multiplicity of infection was 0.1. After 72 hours the cells were centrifuged and the cell pellet homogenized in Tris/Sucrose (50 mM: 25%, pH 8.0) containing 1% 3-[(3-cholamidopropyl)dimethylammonio]-1-propanesulfonate (CHAPS). The homogenate was centrifuged at 10,000×G for 30 minutes, and the resultant supernatant was stored at -80° C. before being assayed for COX activity.
COX activity was assayed as PGE2 formed/μg protein/time using an ELISA to detect the prostaglandin released. CHAPS-solubilized insect cell membranes containing the appropriate COX enzyme were incubated in a potassium phosphate buffer (50 mM, pH 8.0) containing epinephrine, phenol, and heme with the addition of arachidonic acid (10 μM). […] The PGE2 formed was measured by standard ELISA technology (Cayman Chemical).

Regarding `COc1ccc2cc(CC(=O)O)ccc2c1` [6-methoxy-2-napthylacetic acid], in the series with cyclooxygenase II, the “inhibition of COX II enzyme” value is “selectively inhibit the COX II enzyme”.

Regarding `CS(=O)(=O)Nc1ccc([N+](=O)[O-])cc1OC1CCCCC1` [N-(2-cyclohexyloxy-4-nitrophenyl)methanesulfonamide], the “inhibition of COX II enzyme” value in the series on cyclooxygenase II is “inhibits cyclooxygenase II”. Also, in series [1], the gastric side effects entry was “lacks gastric side effects”.

As to `CS(=O)(=O)c1ccc(C2=CC3(C=C2c2ccc(F)cc2)CC3)cc1` [Example 1, 5-(4-Fluorophenyl)-6-[4-(methylsulfonyl)phenyl]spiro[2.4]hepta-4,6-diene], the “ANALGESIA % Inhibition @ 10 mg/kg body weight” value in series [2] stood at 94%. For the same molecule, in series [3], the “RAT PAW EDEMA % Inhibition @ 30 mg/kg body weight” value stood at 49%. Besides, in the series with COX I, the IC50 came to 1300 nM.
